Reference: US20260035403A1, “NUCLEOSIDE LINE-1 INHIBITORS” (TRANSPOSON THERAPEUTICS, INC., priority 2022, published 2026)

Tested on: human LINE-1
Assay: Human LINE-1 retrotransposition assay (HeLa cell-based dual-luciferase reporter)
Conditions: Human LINE-1 activity inhibition, HeLa cells, reporter plasmid pYX017, Firefly/Renilla, 72 h incubation
Description: Representative Compounds of the Disclosure were tested for inhibition of retrotransposition activity of human LINE-1 in HeLa cells according to the following procedure.
HeLa cervical cancer cells were cultivated at 37° C. in a humidified 5% CO2 incubator in Dulbecco's Modified Eagle's Medium (DMEM)—high glucose, with 4500 mg/L glucose, L-glutamine, sodium pyruvate and sodium bicarbonate (Sigma), supplemented with 10% of heat inactivated fetal bovine serum (Thermo Fisher).
Assays were performed using reporter plasmid pYX017 as described (Xie, et al., 2011) with several modifications. The reporter assay was performed in 96-well white optical bottom plates. HeLa cells were seeded in wells 24 h prior to transfection and compound treatment so that cells were approximately 30% confluent on the day of transfection. Different cell plating densities were tested and a density of 2×10^3 cells was determined to be optimal.
Compounds were resuspended in DMSO. Serial dilutions (1:3) were prepared in DMSO. Medium containing different concentrations of the compounds were prepared by adding 2 μl of the compound dilution to 1 ml of the culture medium. The final concentration of DMSO in the medium was 0.2%.
FuGENE® HD transfection reagent (Promega, E2311, Lot 382574 and Lot 397842) was used to transfect the plasmids into the cells. The transfection reagent: DNA mixture was prepared in OpiMEM (Thermo Fisher) according to manufacturer's instructions. Different ratios of transfection reagent to DNA were tested and a ratio of 3:1 was determined to be optimal. Culture medium was removed from the cells and discarded. The transfection reagent: DNA mixture (5 μl) was mixed with the compound containing medium (100 μl/well) and this was added onto the cells of each well. Cells were incubated at 37° C./5% CO2 for different incubation time. A 72 h incubation time was determined to be optimal.
Luciferase reporter activity was quantified with the Dual-Luciferase® Reporter Assay System (Promega) according to manufacturer's instructions for multiwell plates except that cells were lysed directly on the multiwell plate with 30 μl of the passive lysis buffer (PLB) for 20 min at room temperature, with gentle shaking to ensure complete cell lysis.
Firefly and Renilla luciferase signals were measured using a SpectraMax i3× Multi-Mode Microplate Reader. Integration times of 100 ms and 10 ms were used to measure the Firefly and Renilla signals respectively. Relative L1 activity is calculated as Firefly/Renilla*1000 or Firefly/Renilla*10,000. Dose response inhibition data were fit to a four parameter logistic equation using non-linear regression (using Graphpad Prism 8), to determine IC50 values for each inhibitor.

| SMILES | IC50 (Homo sapiens, HeLa, 72 h) [µM] | IC50 [µM] |
| --- | --- | --- |
| CC[C@]1(CO)OC(n2cc(OC)c(=O)[nH]c2=O)C[C@@H]1O (stereo partly drawn) [Cpd. No. 68, 1-((4S,5R)-5-ethyl-4-hydroxy-5-(hydroxymethyl)tetrahydrofuran-2-yl)-5-methoxypyrimidine-2,4(1H,3H)-dione] | 0.721 | – |
| C=C[C@]1(CO)O[C@@H](n2cc(C#N)c(=O)[nH]c2=O)C[C@@H]1O [Cpd. No. 69, 1-((2R,4S,5R)-4-hydroxy-5-(hydroxymethyl)-5-vinyltetrahydrofuran-2-yl)-2,4-dioxo-1,2,3,4-tetrahydropyrimidine-5-carbonitrile] | 6.2 | – |
| CC[C@]1(CO)OC(n2cc(Br)c(N)nc2=O)C[C@@H]1O (stereo partly drawn) [Cpd. No. 70, 4-amino-5-bromo-1-((4S,5R)-5-ethyl-4-hydroxy-5-(hydroxymethyl)tetrahydrofuran-2-yl)pyrimidin-2(1H)-one] | 0.432 | – |
| C#C[C@]1(CO)C=C[C@@H](n2cc(F)c(N)nc2=O)O1 [Cpd. No. 74, 4-amino-1-[(2S,5S)-5-ethynyl-5-(hydroxymethyl)-2H-furan-2-yl]-5-fluoro-pyrimidin-2-one] | > 50 | – |
| C#C[C@]1(CO)O[C@@H](n2nc(C)c3c(N)nc(F)nc32)C[C@@H]1O [Cpd. No. 75, (2R,3S,5R)-5-(4-amino-6-fluoro-3-methyl-1H-pyrazolo[3,4-d]pyrimidin-1-yl)-2-ethynyl-2-(hydroxymethyl)tetrahydrofuran-3-ol] | > 50 | – |
| C#C[C@@]1(CO)O[C@H](n2ccc(N)nc2=O)C[C@H]1O [Cpd. No. 76, 4-amino-1-((2S,4R,5S)-5-ethynyl-4-hydroxy-5-(hydroxymethyl)tetrahydrofuran-2-yl)pyrimidin-2(1H)-one] | > 6.25 | – |
| C#C[C@@]1(CO)O[C@@H](n2ccc(N)nc2=O)C[C@H]1O [Cpd. No. 77, 4-amino-1-((2R,4R,5S)-5-ethynyl-4-hydroxy-5-(hydroxymethyl)tetrahydrofuran-2-yl)pyrimidin-2(1H)-one] | > 6.25 | – |
| C#C[C@@]1(CO)O[C@@H](n2cnc3c(=O)[nH]c(N)nc32)C[C@H]1O [Cpd. No. 79, 2-amino-9-[(2R,4R,5S)-5-ethynyl-4-hydroxy-5-(hydroxymethyl)tetrahydrofuran-2-yl]-1H-purin-6-one] | 17 | – |
| C=C[C@]1(CO)O[C@@H](n2cc(Br)c(N)nc2=O)C[C@@H]1O [Cpd. No. 90, 4-amino-5-bromo-1-((2R,4S,5R)-4-hydroxy-5-(hydroxymethyl)-5-vinyltetrahydrofuran-2-yl)pyrimidin-2(1H)-one] | 0.658 | – |
| C=C[C@]1(CO)O[C@@H](n2cnc3c(NC4CC4)ncnc32)C[C@@H]1O [Cpd. No. 94, (2R,3S,5R)-5-(6-(cyclopropylamino)-9H-purin-9-yl)-2-(hydroxymethyl)-2-vinyltetrahydrofuran-3-ol] | > 50 | – |
| CC[C@]1(CO)O[C@@H](n2cnc3c(NC4CC4)ncnc32)C[C@@H]1O [Cpd. No. 96, (2R,3S,5R)-5-(6-(cyclopropylamino)-9H-purin-9-yl)-2-ethyl-2-(hydroxymethyl)tetrahydrofuran-3-ol] | 7 | – |
| CC[C@]1(CO)O[C@@H](n2cnc3c(NC4CC4)nc(N)nc32)C[C@@H]1O [Cpd. No. 97, (2R,3S,5R)-5-(2-amino-6-(cyclopropylamino)-9H-purin-9-yl)-2-ethyl-2-(hydroxymethyl)tetrahydrofuran-3-ol] | 0.946 | – |
| CC[C@]1(CO)O[C@@H](n2cc(C#N)c(=O)[nH]c2=O)C[C@@H]1O [Cpd. No. 98, 1-((2R,4S,5R)-5-ethyl-4-hydroxy-5-(hydroxymethyl)tetrahydrofuran-2-yl)-4-hydroxy-2-oxo-1,2-dihydropyrimidine-5-carbonitrile] | > 25 | – |
| CC[C@]1(CO)O[C@@H](n2cnc3c(NC4CC4)nc(F)nc32)C[C@@H]1O [Cpd. No. 99, (2R,3S,5R)-5-(6-(cyclopropylamino)-2-fluoro-9H-purin-9-yl)-2-ethyl-2-(hydroxymethyl)tetrahydrofuran-3-ol] | 5.53 | – |
| C=C[C@]1(CO)O[C@@H](n2cnc3c(O)ncnc32)C[C@@H]1O [Cpd. No. 100, 9-((2R,4S,5R)-4-hydroxy-5-(hydroxymethyl)-5-vinyltetrahydrofuran-2-yl)-9H-purin-6-ol] | 1.7 | – |
| C=C[C@]1(CO)O[C@@H](n2cnc3c(OC)nc(N)nc32)C[C@@H]1O [Cpd. No. 102, (2R,3S,5R)-5-(2-amino-6-methoxy-9H-purin-9-yl)-2-(hydroxymethyl)-2-vinyltetrahydrofuran-3-ol] | 1.78 | – |
| CC[C@]1(CO)O[C@@H](n2cc(OC)c(=O)[nH]c2=O)C[C@@H]1O [Cpd. No. 103, 1-((2R,4S,5R)-5-ethyl-4-hydroxy-5-(hydroxymethyl)tetrahydrofuran-2-yl)-5-methoxypyrimidine-2,4(1H,3H)-dione] | > 12.5 | – |
| CC[C@]1(CO)O[C@@H](n2cnc3c(OC)nc(N)nc32)C[C@@H]1O [Cpd. No. 125, (2R,3S,5R)-5-(2-amino-6-methoxy-9H-purin-9-yl)-2-ethyl-2-(hydroxymethyl)tetrahydrofuran-3-ol] | 0.11 | – |
| C=C[C@]1(CO)O[C@H](n2cc(C#N)c(=O)[nH]c2=O)C[C@@H]1O [compound 7, 1-((2S,4S,5R)-4-hydroxy-5-(hydroxymethyl)-5-vinyltetrahydrofuran-2-yl)-2,4-dioxo-1,2,3,4-tetrahydropyrimidine-5-carbonitrile] | 0.89 | – |
| C#C[C@]1(CO)O[C@@H](n2cnc3c(N)nc(F)nc32)[C@H](F)[C@@H]1O [compound 13, (2R,3R,4R,5R)-5-(6-amino-2-fluoro-9H-purin-9-yl)-2-ethynyl-4-fluoro-2-(hydroxymethyl)tetrahydrofuran-3-ol] | 370 | – |
| C#C[C@@]1(CO)C=C[C@H](n2cnc3c(N)ncnc32)O1 [compound 14, ((2R,5R)-5-(6-amino-9H-purin-9-yl)-2-ethynyl-2,5-dihydrofuran-2-yl)methanol] | 50 | – |
| Cc1cn([C@H]2C=C[C@@](C)(CO)O2)c(=O)[nH]c1=O [compound 21, 1-((2R,5S)-5-(hydroxymethyl)-5-methyl-2,5-dihydrofuran-2-yl)-5-methylpyrimidine-2,4(1H,3H)-dione] | > 50 | – |
| C#C[C@@]1(CO)C=C[C@H](n2cc(F)c(=O)[nH]c2=O)O1 [compound 22, 1-((5R)-5-ethynyl-5-(hydroxymethyl)-2,5-dihydrofuran-2-yl)-5-fluoropyrimidine-2,4(1H,3H)-dione] | – | 20.1 |
| Cc1cn([C@H]2C[C@@H](O)[C@@](C)(CO)O2)c(=O)[nH]c1=O [compound 23, 1-((2R,4R,5R)-4-hydroxy-5-(hydroxymethyl)-5-methyltetrahydrofuran-2-yl)-5-methylpyrimidine-2,4(1H,3H)-dione] | > 50 | – |
| CC#C[C@@]1(CO)O[C@@H](n2cc(C)c(=O)[nH]c2=O)C[C@H]1O [compound 24, 1-((2R,4R,5S)-4-hydroxy-5-(hydroxymethyl)-5-(prop-1-yn-1-yl)tetrahydrofuran-2-yl)-5-methylpyrimidine-2,4(1H,3H)-dione] | > 50 | – |
| C=C[C@]1(CO)O[C@@H](n2cc(C)c(=O)[nH]c2=O)C[C@H]1O [compound 25, 1-((2R,4R,5R)-4-hydroxy-5-(hydroxymethyl)-5-vinyltetrahydrofuran-2-yl)-5-methylpyrimidine-2,4(1H,3H)-dione] | > 50 | – |
